Key:
[1] = test system: GBM15 GBM PDX subcutaneous tumor; test: Tumor growth inhibition in GBM PDX model GBM15; assay type: in vivo, mice; conditions: Day 29
Method: In a GBM PDX subcutaneous model. […] Mice bearing tumors were dosed orally QD on several schedules with the cumulative weekly Compound A dose on each schedule equal to 75 mg/kg.

[2] = Plasma protein binding, preclinical species; assay type: in vitro ADME; conditions: plasmas of preclinical species

Cn1cc(-c2cc(S(C)(=O)=O)ccc2OCC2CC2)c2ccccc2c1=O [Compound A, 4-[2-(cyclopropylmethoxy)-5-methylsulfonylphenyl]-2-methylisoquinolin-1-one]
mean percent TGI ([1]; 15 mg/kg PO QD 5 days on/2 off (5/2)): 65%
mean percent TGI ([1]; 25 mg/kg PO QD 3 days on/4 off (3/4)): 65%
mean percent TGI ([1]; 37.5 mg/kg PO QD 2 days on/5 off (2/5)): 70%
fraction unbound [2]: 0.067 to 0.101
